The test system of one data set is RPMI-8226. Nature of the data set: Antitumor activity against human RPMI8226 cells assessed as cell growth inhibition at 10 uM incubated for 48 hrs by sulforhodamine B assay. Particulars: read-out: GI. The class given is functional. For orientation: In SRB staining, fixed cells bind dye roughly in proportion to their protein.
Another data set deals with HOP-92. The data set is described as follows: Antitumor activity against human HOP92 cells assessed as cell growth inhibition at 10 uM incubated for 48 hrs by sulforhodamine B assay. As to conditions: read-out: GI. The class given is functional.
Another data set has as its system HCT-116. Nature of the data set: Antitumor activity against human HCT116 cells assessed as cell growth inhibition at 10 uM incubated for 48 hrs by sulforhodamine B assay. The class given is functional. Particulars: read-out: GI.
The test system of the next data set is SNB-75. The data set is described as follows: Antitumor activity against human SNB-75 cells assessed as cell growth inhibition at 10 uM incubated for 48 hrs by sulforhodamine B assay. The class given is functional. As to conditions: read-out: GI.
The subject of another data set is LOX IMVI. The data set is described as follows: Antitumor activity against human LOX IMVI cells assessed as cell growth inhibition at 10 uM incubated for 48 hrs by sulforhodamine B assay. Type of data set: functional. Particulars: read-out: GI.
A further data set has as its system PC-3. Nature of the data set: Antitumor activity against human PC-3 cells assessed as cell growth inhibition at 10 uM incubated for 48 hrs by sulforhodamine B assay. As to conditions: read-out: GI. Type of data set: functional.
The test system of a further data set is A549. The data set is described as follows: Cytotoxicity against human A549/ATCC assessed as reduction in cell viability at 0.01 uM after 48 hrs by MTT assay. Type of data set: functional.
Data set [1] concerns Calf thymus DNA. Nature of the data set: Binding affinity to calf thymus DNA assessed as binding constant by UV-Vis absorption spectrophotometric method based Benesi-Hildebrand equation analysis. Type of data set: nucleic-acid assay. Particulars: Bos taurus.
The test system of data set [2] is Calf thymus DNA. The data set is described as follows: Binding affinity to calf thymus DNA assessed as binding constant by fluorescence emission spectroscopic analysis. Particulars: Bos taurus. The class given is nucleic-acid assay.
The target of data set [3] is DNA. The data set is described as follows: Binding affinity to human DNA in blood assessed as DNA intercalation by measuring binding constant by UV-Vis spectral titration analysis. Type of data set: tissue-based.
For data set [4], the system named is DNA. Nature of the data set: Binding affinity to human DNA in blood assessed as Stern-Volmer quenching constant by fluorescence emission spectrum analysis. Type of data set: tissue-based.
Data set [5] has as its target T1, Albumin (Bos taurus, UniProt P02769). Nature of the data set: Binding affinity to bovine serum albumin assessed as Stern-Volmer quenching constant at 298K by fluorescence emission spectrum analysis. As to conditions: cattle. The class given is ADME, cell-free.
Data set [6] concerns the target T1, Albumin. Nature of the data set: Binding affinity to bovine serum albumin assessed as Stern-Volmer quenching constant at 318K by fluorescence emission spectrum analysis. The class given is ADME, cell-free. Particulars: cattle.
Data set [7] addresses T1, Albumin. Nature of the data set: Binding affinity to bovine serum albumin assessed as quenching constant at 318K by fluorescence emission spectrum analysis. Type of data set: ADME, cell-free. As to conditions: cattle.
Data set [8] has as its target T1, Albumin. The data set is described as follows: Binding affinity to bovine serum albumin assessed as binding constant at 298K by fluorescence emission spectrum analysis. The class given is ADME, cell-free. Particulars: cattle.
Data set [9] has as its target T1, Albumin. The data set is described as follows: Binding affinity to bovine serum albumin assessed as hydrogen bonding interaction by measuring change in enthalpy at 298K by thermodynamic based analysis. Particulars: cattle. The class given is ADME, cell-free.
In data set [10] the target is T2, Albumin (Homo sapiens, UniProt P02768). The data set is described as follows: Binding affinity to human serum albumin assessed as Stern-Volmer quenching constant by fluorescence emission spectroscopy. Type of data set: ADME, cell-free.
Data set [11] concerns the target T2, Albumin. The data set is described as follows: Binding affinity to human serum albumin assessed as binding constant by fluorescence emission spectroscopy. Type of data set: ADME, cell-free.
In data set [12] the test system is DNA. The data set is described as follows: Binding affinity to human DNA in blood assessed as DNA intercalation by measuring increase in fluorescence emission intensity at 498 nm at 20 uM by fluorescence emission spectral analysis. The class given is tissue-based.

Active and inactive are the calls of the source. The rule behind the calls is not given here. A value given as a limit tells only on which side of the number the result lay.

T1 sequence (P02769 whole entry): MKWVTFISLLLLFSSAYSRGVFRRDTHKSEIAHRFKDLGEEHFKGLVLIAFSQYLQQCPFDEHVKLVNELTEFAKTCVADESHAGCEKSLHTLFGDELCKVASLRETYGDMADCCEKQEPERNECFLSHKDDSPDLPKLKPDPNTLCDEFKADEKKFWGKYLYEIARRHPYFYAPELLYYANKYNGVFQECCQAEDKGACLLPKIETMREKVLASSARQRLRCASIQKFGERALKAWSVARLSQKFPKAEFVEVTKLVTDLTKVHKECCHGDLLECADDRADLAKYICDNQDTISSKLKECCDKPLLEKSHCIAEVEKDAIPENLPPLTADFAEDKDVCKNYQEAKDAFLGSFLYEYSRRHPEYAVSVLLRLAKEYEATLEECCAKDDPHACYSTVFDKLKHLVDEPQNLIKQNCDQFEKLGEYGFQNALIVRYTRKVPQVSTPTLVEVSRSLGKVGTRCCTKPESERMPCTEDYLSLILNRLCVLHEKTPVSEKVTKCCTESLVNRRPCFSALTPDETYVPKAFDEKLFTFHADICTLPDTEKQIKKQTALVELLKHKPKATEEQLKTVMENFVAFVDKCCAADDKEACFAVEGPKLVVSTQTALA
T2 sequence (P02768 whole entry): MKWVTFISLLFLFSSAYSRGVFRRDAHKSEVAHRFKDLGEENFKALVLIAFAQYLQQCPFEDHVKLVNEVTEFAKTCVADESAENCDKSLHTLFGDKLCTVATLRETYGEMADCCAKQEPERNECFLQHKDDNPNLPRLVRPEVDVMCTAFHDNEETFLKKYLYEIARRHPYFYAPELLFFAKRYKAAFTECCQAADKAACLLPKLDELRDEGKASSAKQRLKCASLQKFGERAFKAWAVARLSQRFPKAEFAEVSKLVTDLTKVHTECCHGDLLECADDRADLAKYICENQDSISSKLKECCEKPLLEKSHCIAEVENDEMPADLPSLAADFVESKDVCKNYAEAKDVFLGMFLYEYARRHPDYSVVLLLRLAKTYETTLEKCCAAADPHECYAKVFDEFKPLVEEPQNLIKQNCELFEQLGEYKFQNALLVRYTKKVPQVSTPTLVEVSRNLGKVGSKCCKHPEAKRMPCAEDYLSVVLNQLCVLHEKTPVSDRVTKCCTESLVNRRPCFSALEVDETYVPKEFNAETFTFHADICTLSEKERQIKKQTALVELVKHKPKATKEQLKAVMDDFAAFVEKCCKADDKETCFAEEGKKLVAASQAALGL

For the compound `O=C1NC(=O)/C(=C/c2ccc(-c3nc4c5ccccc5c5ccccc5c4[nH]3)cc2)S1`, the inhibition of growth at 10 µM is 66.1% in the data set with RPMI-8226; 21.4% in the data set with HOP-92; 65.5% in the data set with HCT-116; less than 10% with SNB-75; 36.7% with LOX IMVI; 51.9% in the data set on PC-3. Also, the Activity in the data set on A549 is 42%. Moreover, the Kb with Calf thymus DNA [1] is 2.95 10^4/M; in the data set on Calf thymus DNA [2], 1.95 10^5/M; at DNA [3], 5.24 10^4/M; on Albumin [8] it was 4.06 10^6/M; at Albumin [11], 7.29 10^6/M. In addition, the KSV in the data set on DNA [4] was 3.46 10^3/M; on Albumin [5], 8.42 10^5/M; on Albumin [6], 3.51 10^5/M; on Albumin [10], 3.01 10^6/M. For the same compound, the Kq at Albumin [7] is 3.51 10^13/M/sec. Further, the deltaH at Albumin [9] is -2.92 kcal/mol. Also, in the data set on DNA [12], the outcome was Active.

Values taken from ChEMBL document CHEMBL4665624, “Synthesis of 5-(4-(1H-phenanthro[9,10-d]imidazol-2-yl)benzylidene)thiazolidine-2,4-dione as promising DNA and serum albumin-binding agents and evaluation of antitumor activity” (Eur J Med Chem, 2019).
